In patent US12371454B2, “Cyclic peptide compound having Kras inhibitory action” (priority 2019, dated 2025):
Starred links: 1 amine or outer side, 2 acyl side, 3 side chain; linkers in the order of their positions; H or OH if unused. Positions of bridges follow the written chain, without caps; N, C: chain ends. Non-standard residues stand in square brackets, D forms with d. Residues, ends and D or L forms follow the SMILES beside them. *: point of attachment. hPhe(3,5-F2-4-CF3) = N[C@@H](CCc1cc(F)c(C(F)(F)F)c(F)c1)C(=O)O; hPhe(3-Cl-4-CF3) = N[C@@H](CCc1ccc(C(F)(F)F)c(Cl)c1)C(=O)O; NMePhe(4-CF3) = CN[C@@H](Cc1ccc(C(F)(F)F)cc1)C(=O)O; X39 = COc1ccc(C[C@@H](C(=O)[*:2])N(C)[*:1])cn1; NEtPhe(4-Me) = CCN[C@@H](Cc1ccc(C)cc1)C(=O)O; NMePhe(4-Cl) = CN[C@@H](Cc1ccc(Cl)cc1)C(=O)O; NMePhe(4-Me) = CN[C@@H](Cc1ccc(C)cc1)C(=O)O; NMePhe(2-Cl) = CN[C@@H](Cc1ccccc1Cl)C(=O)O; NMedβ3hAla = C[C@H](CC(=O)[*:2])N(C)[*:1]; X32 = O=C(CN(CCN1CCC(F)(F)CC1)[*:1])[*:2]; Phe(3-Cl) = N[C@@H](Cc1cccc(Cl)c1)C(=O)O; NMeGly(cPent) = CN[C@H](C(=O)O)C1CCCC1; Phe(3-I) = N[C@@H](Cc1cccc(I)c1)C(=O)O; Pro(4,4-F2) = O=C(O)[C@@H]1CC(F)(F)CN1; Ala(cPent) = N[C@@H](CC1CCCC1)C(=O)O; Phe(2-F) = N[C@@H](Cc1ccccc1F)C(=O)O; NMeCha = CN[C@@H](CC1CCCCC1)C(=O)O; hhPhe = N[C@@H](CCCc1ccccc1)C(=O)O; Hyp = O=C(O)[C@@H]1C[C@@H](O)CN1; NMeChg = CN[C@H](C(=O)O)C1CCCCC1; NMeF = CN[C@@H](Cc1ccccc1)C(=O)O; NMeI = CC[C@H](C)[C@H](NC)C(=O)O; hPhe = N[C@@H](CCc1ccccc1)C(=O)O; NMeD = CN[C@@H](CC(=O)O)C(=O)O; NMeL = CN[C@@H](CC(C)C)C(=O)O; NMeV = CN[C@H](C(=O)O)C(C)C; d(β3hA) = C[C@@H](N)CC(=O)O; NMeS = CN[C@@H](CO)C(=O)O; NMeA = CN[C@@H](C)C(=O)O; NMeAib = CNC(C)(C)C(=O)O; Piperidide = C1CCN(*)CC1; Pyrrolidide = C1CCN(*)C1; dNMeA = CN[C@H](C)C(=O)O; Ac5c = NC1(C(=O)O)CCCC1; Aze = O=C(O)[C@@H]1CCN1; Ac4c = NC1(C(=O)O)CCC1; Sar = CNCC(=O)O

Molecular target: T1, Kras and SOS1 (biotin-tagged human Kras loaded with GDP, His-tagged human SOS1) (Homo sapiens, UniProt P01116, G12D)
T1 construct: made in house; host or cells: E. coli (stated for Kras only)
Test: Protein-protein interaction inhibition between Kras and SOS1 (KrasGl2D-SOS PPI) using AlphaScreen
Type: binding
Conditions: AlphaScreen; biotin-tagged human Kras loaded with GDP, His-tagged human SOS1; read-out: KRAS G12D-SOS PPI IC50
How it was run: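 AlphaScreen format: Ni donor beads capture His-SOS1, streptavidin acceptor beads capture biotinylated Kras (E. coli-expressed, GDP-loaded post-purification). Excite 680 nm, read 520-620 nm.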

T1 sequence (P01116 1-188 isoform P01116-2 G12D): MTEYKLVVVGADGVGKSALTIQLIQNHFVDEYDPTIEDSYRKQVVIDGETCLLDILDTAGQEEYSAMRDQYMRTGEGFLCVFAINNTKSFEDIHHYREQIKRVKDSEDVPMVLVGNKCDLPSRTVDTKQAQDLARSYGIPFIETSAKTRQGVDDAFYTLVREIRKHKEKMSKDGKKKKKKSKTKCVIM

Compound | IC50
CC[C@H](C)[C@@H]1NC(=O)[C@H](CC(C)C)N(C)C(=O)C[C@@H](C)N(C)C(=O)[C@H](C2CCCC2)N(C)C(=O)C2(CCCC2)NC(=O)[C@@H]2CC(F)(F)CN2C(=O)[C@H](CCc2ccc(C(F)(F)F)c(Cl)c2)NC(=O)CN(C)C(=O)[C@H](Cc2ccc(C(F)(F)F)cc2)N(C)C(=O)CN(C)C(=O)CN(C)C1=O [Compound 611] (cyclo([Ac5c][NMeGly(cPent)][NMedβ3hAla][NMeL]I[Sar][Sar][NMePhe(4-CF3)][Sar][hPhe(3-Cl-4-CF3)][Pro(4,4-F2)])) | 3.3 nM
CC[C@H](C)[C@@H]1NC(=O)[C@H](C)N(C)C(=O)C[C@@H](C(=O)N2CCCC2)NC(=O)[C@H](C(C)C)N(C)C(=O)[C@H](Cc2ccccc2)N(C)C(=O)[C@H](C)NC(=O)[C@H](Cc2cccc(Cl)c2)NC(=O)CN(C)C(=O)[C@H](Cc2ccc(Cl)cc2)N(C)C(=O)CN(C)C(=O)CN(C)C1=O [Compound 612] ([NMeA]I[Sar][Sar][NMePhe(4-Cl)][Sar][Phe(3-Cl)]A[NMeF][NMeV]D-Pyrrolidide; lactam N-11) | 120 nM
CC[C@H](C)[C@@H]1NC(=O)[C@H](C)N(C)C(=O)C[C@@H](C(=O)N2CCCC2)NC(=O)[C@H](CC(C)C)N(C)C(=O)[C@H](Cc2ccccc2)N(C)C(=O)[C@H](CC(C)C)NC(=O)[C@H](Cc2ccccc2)NC(=O)CN(C)C(=O)[C@H](Cc2ccc(Cl)cc2)N(C)C(=O)CN(C)C(=O)CN(C)C1=O [Compound 613] ([NMeA]I[Sar][Sar][NMePhe(4-Cl)][Sar]FL[NMeF][NMeL]D-Pyrrolidide; lactam N-11) | 500 nM
CC[C@H](C)[C@@H]1NC(=O)[C@H](CC(C)C)N(C)C(=O)C[C@@H](C(=O)N2CCCCC2)N(C)C(=O)[C@H](C2CCCCC2)N(C)C(=O)C2(CCCC2)NC(=O)[C@H](Cc2ccc(OC)nc2)N(C)C(=O)[C@H](CCc2ccc(C(F)(F)F)c(Cl)c2)NC(=O)CN(C)C(=O)[C@H](CC2CCCCC2)N(C)C(=O)[C@@H]2CCN2C(=O)CN(C)C1=O [Compound 614] ([NMeL]I[Sar][Aze][NMeCha][Sar][hPhe(3-Cl-4-CF3)][X39][Ac5c][NMeChg][NMeD]-Piperidide; lactam N-11) | 24 nM
CC[C@H](C)[C@@H]1NC(=O)[C@H](CC(C)C)N(C)C(=O)C[C@@H](C(=O)N2CCCCC2)N(C)C(=O)[C@H](CC(C)C)NC(=O)C(C)(C)N(C)C(=O)[C@H](CCc2ccccc2)NC(=O)[C@H](Cc2cccc(I)c2)NC(=O)CN(C)C(=O)[C@H](Cc2ccc(C)cc2)N(C)C(=O)[C@@H]2CCN2C(=O)[C@H](C)N(C)C1=O [Compound 617] ([NMeL]I[NMeA][Aze][NMePhe(4-Me)][Sar][Phe(3-I)][hPhe][NMeAib]L[NMeD]-Piperidide; lactam N-11) | 110 nM
CC[C@H](C)[C@@H]1NC(=O)[C@H](CC(C)C)N(C)C(=O)C[C@@H](C(=O)N2CCCCC2)N(C)C(=O)[C@H](CC(C)C)NC(=O)[C@H](Cc2ccccc2)N(C)C(=O)[C@H](C)NC(=O)[C@H](Cc2cccc(I)c2)NC(=O)CN(C)C(=O)[C@H](Cc2ccc(C)cc2)N(C)C(=O)CN(C)C(=O)CN(C)C1=O [Compound 619] ([NMeL]I[Sar][Sar][NMePhe(4-Me)][Sar][Phe(3-I)]A[NMeF]L[NMeD]-Piperidide; lactam N-11) | 19 nM
CC[C@H](C)[C@@H]1NC(=O)[C@H](C)N(C)C(=O)C[C@@H](C)NC(=O)[C@H](C2CCCC2)N(C)C(=O)C2(CCCC2)NC(=O)[C@@H]2CCCN2C(=O)[C@H](CCc2ccc(C(F)(F)F)c(Cl)c2)NC(=O)[C@@H](C)N(C)C(=O)[C@H](CC(C)C)N(C)C(=O)CN(C)C(=O)CN(C)C1=O [Compound 621] (cyclo([Ac5c][NMeGly(cPent)][d(β3hA)][NMeA]I[Sar][Sar][NMeL][dNMeA][hPhe(3-Cl-4-CF3)]P)) | 59 nM
CC[C@H](C)[C@@H]1NC(=O)[C@H](CC(C)C)N(C)C(=O)C[C@@H](C(=O)N2CCCCC2)N(C)C(=O)[C@H](C2CCCCC2)N(C)C(=O)C2(CCCC2)NC(=O)[C@@H]2CCCN2C(=O)[C@H](CCc2ccc(C(F)(F)F)c(Cl)c2)NC(=O)CN(C)C(=O)[C@H](COC)N(C)C(=O)CN(C)C(=O)CN(C)C1=O [Compound 623] ([NMeL]I[Sar][Sar][NMeS](Me)[Sar][hPhe(3-Cl-4-CF3)]P[Ac5c][NMeChg][NMeD]-Piperidide; lactam N-11) | 1.8 nM
CC[C@H](C)[C@@H]1NC(=O)[C@H](C)N(C)C(=O)C[C@@H](C(=O)N2CCCC2)N(C)C(=O)[C@H](C(C)C)N(C)C(=O)[C@H](C)NC(=O)[C@H](Cc2ccccc2Cl)N(C)C(=O)[C@H](CCc2ccc(C(F)(F)F)c(Cl)c2)NC(=O)CN(C)C(=O)[C@H](CC2CCCCC2)N(C)C(=O)CN(C)C(=O)CN(C)C1=O [Compound 624] ([NMeA]I[Sar][Sar][NMeCha][Sar][hPhe(3-Cl-4-CF3)][NMePhe(2-Cl)]A[NMeV][NMeD]-Pyrrolidide; lactam N-11) | 160 nM
CCO[C@@H]1C[C@H]2C(=O)NC3(CCC3)C(=O)N(C)[C@@H]([C@@H](C)CC)C(=O)N(C)[C@H](C)CC(=O)N(C)[C@@H](CC(C)C)C(=O)N[C@@H]([C@@H](C)CC)C(=O)N(C)[C@@H](C)C(=O)N3CC[C@H]3C(=O)N(CC)[C@@H](Cc3ccc(C)cc3)C(=O)N(C)CC(=O)N[C@@H](CCc3ccc(C(F)(F)F)c(Cl)c3)C(=O)N2C1 [Compound 626] (cyclo([Ac4c][NMeI][NMedβ3hAla][NMeL]I[NMeA][Aze][NEtPhe(4-Me)][Sar][hPhe(3-Cl-4-CF3)][Hyp](Et))) | 2.4 nM
CC(C)C[C@H]1C(=O)N[C@@H](CC2CCCC2)C(=O)N(C)CC(=O)N(C)CC(=O)N(C)[C@@H](CC2CCCCC2)C(=O)N(C)CC(=O)N[C@@H](CCc2ccc(C(F)(F)F)c(Cl)c2)C(=O)N2CCC[C@H]2C(=O)NC2(CCCC2)C(=O)N(C)[C@@H](C(C)C)C(=O)N(C)[C@H](C(=O)N2CCCCC2)CC(=O)N1C [Compound 627] ([NMeL][Ala(cPent)][Sar][Sar][NMeCha][Sar][hPhe(3-Cl-4-CF3)]P[Ac5c][NMeV][NMeD]-Piperidide; lactam N-11) | 13 nM
CC[C@H](C)[C@@H]1NC(=O)[C@H](CC(C)C)N(C)C(=O)C[C@@H](C)N(C)C(=O)[C@H](C2CCCC2)N(C)C(=O)C2(CCCC2)NC(=O)[C@@H]2CC(F)(F)CN2C(=O)[C@H](CCc2cc(F)c(C(F)(F)F)c(F)c2)NC(=O)CN(C)C(=O)[C@H](CC2CCCCC2)N(C)C(=O)[C@@H]2CCN2C(=O)[C@H](C)N(C)C1=O [Compound 628] (cyclo([Ac5c][NMeGly(cPent)][NMedβ3hAla][NMeL]I[NMeA][Aze][NMeCha][Sar][hPhe(3,5-F2-4-CF3)][Pro(4,4-F2)])) | 20 nM
CC[C@H](C)[C@@H]1NC(=O)[C@H](CC(C)C)N(C)C(=O)C[C@@H](C(=O)N2CCCCC2)N(C)C(=O)[C@H]([C@@H](C)CC)N(C)C(=O)C2(CCCC2)NC(=O)[C@@H]2CCCN2C(=O)[C@H](CCc2ccc(C(F)(F)F)c(Cl)c2)NC(=O)CN(C)C(=O)[C@H](Cc2ccc(C(F)(F)F)cc2)N(C)C(=O)[C@@H]2CCN2C(=O)[C@H](C)N(C)C1=O [Compound 630] ([NMeL]I[NMeA][Aze][NMePhe(4-CF3)][Sar][hPhe(3-Cl-4-CF3)]P[Ac5c][NMeI][NMeD]-Piperidide; lactam N-11) | 1.7 nM
CC[C@H](C)[C@@H]1NC(=O)[C@H](C)N(C)C(=O)C[C@@H](C(=O)N2CCCCC2)N(C)C(=O)[C@H](C2CCCCC2)N(C)C(=O)C2(CCCC2)NC(=O)[C@@H]2CCCN2C(=O)[C@H](CCCc2ccccc2)NC(=O)CN(C)C(=O)[C@H](CC2CCCCC2)N(C)C(=O)CN(C)C(=O)CN(C)C1=O [Compound 633] ([NMeA]I[Sar][Sar][NMeCha][Sar][hhPhe]P[Ac5c][NMeChg][NMeD]-Piperidide; lactam N-11) | 120 nM
CC[C@H](C)[C@@H]1NC(=O)[C@H](CC(C)C)N(C)C(=O)C[C@@H](C)NC(=O)[C@H](C(C)C)N(C)C(=O)C2(CCCC2)NC(=O)[C@@H]2CCCN2C(=O)[C@H](CCc2ccc(C(F)(F)F)c(Cl)c2)NC(=O)CN(C)C(=O)[C@H](CC2CCCCC2)N(C)C(=O)CN(C)C(=O)CN(CCN2CCC(F)(F)CC2)C1=O [Compound 635] (cyclo([Ac5c][NMeV][d(β3hA)][NMeL]I[X32][Sar][NMeCha][Sar][hPhe(3-Cl-4-CF3)]P)) | 190 nM
CC[C@H](C)[C@@H]1NC(=O)[C@H](COC)N(C)C(=O)C[C@@H](C(=O)N2CCCCC2)N(C)C(=O)[C@H](C(C)C)N(C)C(=O)C2(CCCC2)NC(=O)[C@@H]2CCCN2C(=O)[C@H](CCc2ccc(C(F)(F)F)c(Cl)c2)NC(=O)CN(C)C(=O)[C@H](CC2CCCCC2)N(C)C(=O)[C@@H]2CCN2C(=O)[C@H](C)N(C)C1=O [Compound 636] ([NMeS](Me)I[NMeA][Aze][NMeCha][Sar][hPhe(3-Cl-4-CF3)]P[Ac5c][NMeV][NMeD]-Piperidide; lactam N-11) | 1.1 nM
CC[C@H](C)[C@@H]1NC(=O)[C@H](C)N(C)C(=O)C[C@@H](C(=O)N2CCCCC2)NC(=O)[C@H](CC(C)C)N(C)C(=O)[C@H](Cc2ccccc2)N(C)C(=O)[C@H](CC(C)C)NC(=O)[C@H](Cc2cccc(I)c2)NC(=O)CN(C)C(=O)[C@H](Cc2ccc(Cl)cc2)N(C)C(=O)CN(C)C(=O)CN(C)C1=O [Compound 637] ([NMeA]I[Sar][Sar][NMePhe(4-Cl)][Sar][Phe(3-I)]L[NMeF][NMeL]D-Piperidide; lactam N-11) | 26 nM
CC[C@H](C)[C@@H]1NC(=O)[C@H](CC(C)C)N(C)C(=O)C[C@@H](C(=O)N2CCCCC2)N(C)C(=O)[C@H](CC(C)C)NC(=O)C(C)(C)N(C)C(=O)[C@H](Cc2ccccc2F)NC(=O)[C@H](Cc2cccc(I)c2)NC(=O)CN(C)C(=O)[C@H](Cc2ccc(C)cc2)N(C)C(=O)[C@@H]2CCN2C(=O)CN(C)C1=O [Compound 638] ([NMeL]I[Sar][Aze][NMePhe(4-Me)][Sar][Phe(3-I)][Phe(2-F)][NMeAib]L[NMeD]-Piperidide; lactam N-11) | 45 nM
